Measurements taken from patent US20260166039A1 (SCHRÖDINGER, INC., priority 2022, published 2026).
Where two headings read alike, the source gives them in different places. Values belong to the molecule of their own block, whether it stands above or below them.

Columns and labels:
Wee1 kinase domain = biological target: T1, Wee1 kinase domain (Homo sapiens, UniProt P30291); assay: Wee1 Kinase Biochemical Assay (ADP-Glo); settings: 15 uM ATP
T1 construct: Wee1 kinase domain was purchased from Carna (catalog #05-177); purchased Carna 05-177
T1 sequence (P30291 299-569 limits assumed): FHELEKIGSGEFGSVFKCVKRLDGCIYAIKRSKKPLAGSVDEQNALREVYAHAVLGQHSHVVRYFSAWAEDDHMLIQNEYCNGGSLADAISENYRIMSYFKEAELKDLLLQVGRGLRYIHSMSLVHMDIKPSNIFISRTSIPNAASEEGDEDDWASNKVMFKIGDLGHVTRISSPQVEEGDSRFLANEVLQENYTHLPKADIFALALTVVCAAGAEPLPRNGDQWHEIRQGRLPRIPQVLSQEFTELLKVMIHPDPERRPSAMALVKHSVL
Summary of the method: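 1 nM enzyme; 15 uM ATP; 2 ng/mL poly(Lys,Tyr 4:1); 40 mM Tris-HCl, 20 mM MgCl2, 0.1 mg/mL BSA, 2 mM DTT; 4 h, 25 °C; ADP-Glo; % inhibition vs DMSO and saturating positive-control wells.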

[1] = tested on: phosphorylation of Cdc2 Y15 (Wee1 substrate) in A427 cells; assay: Phosphorylated Cdc2 MSD Electrochemiluminescence Assay; type: cell-based; settings: Homo sapiens
Summary of the method: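 A427 cells (RPMI 1640, 10% FBS) treated 20 h after plating with 3-fold serial compound dilutions, in duplicate, 37 °C, 5% CO2; total incubation 6 h. Lysate Cdc2 pY15 read by MSD electrochemiluminescence sandwich immunoassay; % remaining signal normalised to DMSO (high) and reference Wee1 inhibitor (low) controls.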

[2] = class symbols, 1 nM Wee1 enzyme, 4 hours at 25° C.
[3] = A-427, class symbols, read-out: A427 pCDC2 MSD IC50

SMILES: CNCc1cccc(N2c3nc(Nc4cnn(C(C)(C)C)c4)ncc3[C@@]3(C)COC(C)(C)C[C@@H]23)n1 (single isomer, unassigned) [Example 48]
IC50 (Wee1 kinase domain; Wee1 kinase domain, ADP-Glo): < 10 nM | IC50 ([1]; A-427, pCDC2 MSD): < 100 nM

SMILES: Cc1cc(Nc2ncc3c(n2)N(c2cccc(N=S(C)(C)=O)n2)[C@@H]2CC(C)(C)OC[C@]32C)ccc1[C@H]1CCN(C)C1 (single isomer, unassigned) [Example 147]
IC50 (Wee1 kinase domain; Wee1 kinase domain, ADP-Glo): < 10 nM | IC50 ([1]; A-427, pCDC2 MSD): < 100 nM

SMILES: C[C@H]1COC(=O)N1c1cccc(N2c3nc(Nc4ccc([C@@H]5CCNC5)nc4)ncc3[C@@]3(C)COC(C)(C)C[C@@H]23)n1 (single isomer, unassigned) [Example 257]
IC50 (Wee1 kinase domain; Wee1 kinase domain, ADP-Glo): < 10 nM | IC50 ([1]; A-427, pCDC2 MSD): 100 to 1000 nM

SMILES: C[C@H]1COC(=O)N1c1cccc(N2c3nc(Nc4ccc(OC5CNC5)nc4)ncc3[C@@]3(C)COC(C)(C)C[C@@H]23)n1 (single isomer, unassigned) [Example 343]
IC50 (Wee1 kinase domain; Wee1 kinase domain, ADP-Glo): < 10 nM | IC50 ([1]; A-427, pCDC2 MSD): 100 to 1000 nM

SMILES: [2H]C([2H])([2H])N1CCC(c2ccc(Nc3ncc4c(n3)N(c3cccc(N=S(C)(C)=O)n3)[C@@H]3CC(C)(C)OC[C@]43C)cc2)CC1 (single isomer, unassigned) [Example 162]
IC50 (Wee1 kinase domain; Wee1 kinase domain, ADP-Glo): < 10 nM | IC50 ([1]; A-427, pCDC2 MSD): < 100 nM

SMILES: Cn1ncc(Nc2ncc3c(n2)N(c2cccc(N=S(C)(C)=O)n2)[C@@H]2CC(C)(C)OC[C@]32C)c1F (single isomer, unassigned) [Example 490]
IC50 (Wee1 kinase domain; [2]): < 10 nM | IC50 [1, 3]: 100 to 1000 nM

SMILES: CC1(C)C[C@H]2N(c3cccc(N4CCCC4=O)n3)c3nc(Nc4ccc([C@H]5CCNC5)cc4)ncc3[C@@]2(C)CO1 [Example 636, 1-(6-((4bR,8aR)-4b,7,7-trimethyl-2-((4-((R)-pyrrolidin-3-yl)phenyl)amino)-4b,7,8,8a-tetrahydropyrano[3′,4′:4,5]pyrrolo[2,3-d]pyrimidin-9(5H)-yl)pyridin-2-yl)pyrrolidin-2-one]
IC50 (Wee1 kinase domain; [2]): < 10 nM | IC50 [1, 3]: 100 to 1000 nM

Further lines, results first:

IC50 (Wee1 kinase domain; Wee1 kinase domain, ADP-Glo): < 10 nM | IC50 ([1]; A-427, pCDC2 MSD): 100 to 1000 nM
SMILES: Cc1cc(Nc2ncc3c(n2)N(c2cccc(N4C(=O)OC[C@@H]4C)n2)[C@@H]2CC(C)(C)OC[C@]32C)ccc1O[C@H]1CCN(C)C1 (single isomer, unassigned) [Example 345]

IC50 (Wee1 kinase domain; Wee1 kinase domain, ADP-Glo): < 10 nM | IC50 ([1]; A-427, pCDC2 MSD): 100 to 1000 nM
SMILES: Cc1ccc(Nc2ncc3c(n2)N(c2cccc(N=S(C)(C)=O)n2)[C@@H]2CC(C)(C)OC[C@]32C)nn1 (single isomer, unassigned) [Example 364]

IC50 (Wee1 kinase domain; Wee1 kinase domain, ADP-Glo): < 10 nM | IC50 ([1]; A-427, pCDC2 MSD): 100 to 1000 nM
SMILES: C[C@H]1COC(=O)N1c1cccc(N2c3nc(Nc4ccc(O[C@H]5CCNC5)nc4)ncc3[C@@]3(C)COC(C)(C)C[C@@H]23)n1 (single isomer, unassigned) [Example 285]

IC50 (Wee1 kinase domain; Wee1 kinase domain, ADP-Glo): < 10 nM | IC50 ([1]; A-427, pCDC2 MSD): 100 to 1000 nM
SMILES: CNCc1cccc(N2c3nc(Nc4ccc([C@]5(C)CCN(C)C5=O)cc4)ncc3[C@@]3(C)COC(C)(C)C[C@@H]23)n1 (single isomer, unassigned) [Example 78]

IC50 (Wee1 kinase domain; Wee1 kinase domain, ADP-Glo): < 10 nM | IC50 ([1]; A-427, pCDC2 MSD): < 100 nM
SMILES: Cc1cc(Nc2ncc3c(n2)N(c2cccc(N=S(C)(C)=O)n2)[C@@H]2CC(C)(C)OC[C@]32C)ccc1N1CCN(C)CC1 (single isomer, unassigned) [Example 106]

IC50 (Wee1 kinase domain; [2]): < 10 nM | IC50 [1, 3]: < 100 nM
SMILES: C[C@@H]1CN(c2ccc(Nc3ncc4c(n3)N(c3cccc(N=S(C)(C)=O)n3)[C@@H]3CC(C)(C)OC[C@]43C)cc2)CCN1C (single isomer, unassigned) [Example 499]
